Test results: US10456407B2, “Combination therapy for treating cancer” (Epizyme, Inc., priority 2015, dated 2019)

System: WSU-DLCL2 cells
Assay: RT2 Glucocorticoid signaling PCR array, WSU-DLCL2 (WSU) cell line (Table 4c)
Format: cell-based

SMILES: CCN(c1cc(-c2ccc(CN3CCOCC3)cc2)cc(C(=O)NCc2c(C)cc(C)[nH]c2=O)c1C)C1CCOCC1 [Compound 44]
- Ct Values, ACTB (gene ACTB): 15.450
- ΔCT (B2M), ACTB (gene ACTB): −4.235
- Ct Values, ADARB1 (gene ADARB1): 25.386
- ΔCT (B2M), ADARB1 (gene ADARB1): 5.701
- ΔΔCT, ADARB1 (gene ADARB1, compared to DMSO): −1.165
- Ct Values, AFF1 (gene AFF1): 27.925
- ΔCT (B2M), AFF1 (gene AFF1): 8.240
- ΔΔCT, AFF1 (gene AFF1, compared to DMSO): −0.413
- Ct Values, AK2 (gene AK2): 21.365
- ΔCT (B2M), AK2 (gene AK2): 1.680
- ΔΔCT, AK2 (gene AK2, compared to DMSO): 0.486
- Ct Values, AMPD3 (gene AMPD3): 27.162
- ΔCT (B2M), AMPD3 (gene AMPD3): 7.477
- ΔΔCT, AMPD3 (gene AMPD3, compared to DMSO): −1.540
- Ct Values, ANGPTL4 (gene ANGPTL4): 30.487
- ΔCT (B2M), ANGPTL4 (gene ANGPTL4): 10.802
- ΔΔCT, ANGPTL4 (gene ANGPTL4, compared to DMSO): −1.192
- Ct Values, ANXA4 (gene ANXA4): 24.659
- ΔCT (B2M), ANXA4 (gene ANXA4): 4.974
- ΔΔCT, ANXA4 (gene ANXA4, compared to DMSO): −3.312
- Ct Values, AQP1 (gene AQP1): 33.645
- ΔCT (B2M), AQP1 (gene AQP1): 13.960
- Ct Values, ARID68 (gene ARID68): 26.126
- ΔCT (B2M), ARID68 (gene ARID68): 6.441
- ΔΔCT, ARID68 (gene ARID68, compared to DMSO): −0.353
- Ct Values, ASPH (gene ASPH): 22.415
- ΔΔCT, ASPH (gene ASPH, compared to DMSO): −0.105
- Ct Values, ATF4 (gene ATF4): 20.470
- ΔCT (B2M), ATF4 (gene ATF4): 0.785
- ΔΔCT, ATF4 (gene ATF4, compared to DMSO): 0.361
- Ct Values, B2M (gene B2M (normaliser)): 19.685
- ΔCT (B2M), B2M (gene B2M (normaliser)): 0.000
- Ct Values, BCL6 (gene BCL6): 20.795
- ΔCT (B2M), BCL6 (gene BCL6): 1.110
- ΔΔCT, BCL6 (gene BCL6, compared to DMSO): −0.394
- Ct Values, CEBPA (gene CEBPA): 27.014
- ΔCT (B2M), CEBPA (gene CEBPA): 7.329
- ΔΔCT, CEBPA (gene CEBPA, compared to DMSO): −1.659
- Ct Values, CEBPB (gene CEBPB): 26.770
- ΔCT (B2M), CEBPB (gene CEBPB): 7.085
- ΔΔCT, CEBPB (gene CEBPB, compared to DMSO): 1.269
- Ct Values, CREB1 (gene CREB1): 23.413
- ΔCT (B2M), CREB1 (gene CREB1): 3.728
- ΔΔCT, CREB1 (gene CREB1, compared to DMSO): 0.008
- Ct Values, CREB3 (gene CREB3): 25.459
- ΔCT (B2M), CREB3 (gene CREB3): 5.774
- ΔΔCT, CREB3 (gene CREB3, compared to DMSO): −0.085
- Ct Values, CREB3L4 (gene CREB3L4): 24.392
- ΔCT (B2M), CREB3L4 (gene CREB3L4): 4.707
- ΔΔCT, CREB3L4 (gene CREB3L4, compared to DMSO): −0.915
- Ct Values, CYB561 (gene CYB561): 31.478
- ΔCT (B2M), CYB561 (gene CYB561): 11.793
- ΔΔCT, CYB561 (gene CYB561, compared to DMSO): −5.631
- Ct Values, DDIT4 (gene DDIT4): 24.404
- ΔCT (B2M), DDIT4 (gene DDIT4): 4.719
- ΔΔCT, DDIT4 (gene DDIT4, compared to DMSO): −0.060
- Ct Values, DUSP1 (gene DUSP1): 27.284
- ΔCT (B2M), DUSP1 (gene DUSP1): 7.599
- ΔΔCT, DUSP1 (gene DUSP1, compared to DMSO): 1.370
- Ct Values, EDN1 (gene EDN1): 26.349
- ΔCT (B2M), EDN1 (gene EDN1): 6.664
- Ct Values, EHD3 (gene EHD3): 24.270
- ΔCT (B2M), EHD3 (gene EHD3): 4.585
- ΔΔCT, EHD3 (gene EHD3, compared to DMSO): −5.639
- Ct Values, ERRFI1 (gene ERRFI1): 32.771
- ΔCT (B2M), ERRFI1 (gene ERRFI1): 13.086
- Ct Values, FK8PS (gene FK8PS): 23.267
- ΔCT (B2M), FK8PS (gene FK8PS): 3.582
- ΔΔCT, FK8PS (gene FK8PS, compared to DMSO): 0.159
- Ct Values, FOSL2 (gene FOSL2): 34.140
- ΔCT (B2M), FOSL2 (gene FOSL2): 14.455
- ΔΔCT, FOSL2 (gene FOSL2, compared to DMSO): 2.796
- Ct Values, GAPDH (gene GAPDH): 17.275
- ΔCT (B2M), GAPDH (gene GAPDH): −2.410
- Ct Values, GDPD1 (gene GDPD1): 27.494
- ΔCT (B2M), GDPD1 (gene GDPD1): 7.809
- ΔΔCT, GDPD1 (gene GDPD1, compared to DMSO): −1.112
- Ct Values, GHRHR (gene GHRHR): 39.957
- ΔCT (B2M), GHRHR (gene GHRHR): 20.272
- ΔΔCT, GHRHR (gene GHRHR, compared to DMSO): 5.086
- Ct Values, GLUL (gene GLUL): 28.395
- ΔCT (B2M), GLUL (gene GLUL): 8.710
- Ct Values, GOT1 (gene GOT1): 23.827
- ΔCT (B2M), GOT1 (gene GOT1): 4.142
- ΔΔCT, GOT1 (gene GOT1, compared to DMSO): 0.708
- Ct Values, H6PD (gene H6PD): 25.976
- ΔCT (B2M), H6PD (gene H6PD): 6.291
- ΔΔCT, H6PD (gene H6PD, compared to DMSO): −0.619
- Ct Values, HNRPLL (gene HNRPLL): 24.170
- ΔCT (B2M), HNRPLL (gene HNRPLL): 4.485
- ΔΔCT, HNRPLL (gene HNRPLL, compared to DMSO): −0.037
- Ct Values, HPRT1 (gene HPRT1): 22.793
- ΔCT (B2M), HPRT1 (gene HPRT1): 3.108
- Ct Values, IL1RN (gene IL1RN): 28.388
- ΔCT (B2M), IL1RN (gene IL1RN): 8.703
- Ct Values, IL6R (gene IL6R): 33.814
- ΔCT (B2M), IL6R (gene IL6R): 14.129
- Ct Values, IL10 (gene IL10): 34.229
- ΔCT (B2M), IL10 (gene IL10): 14.544
- Ct Values, KLF9 (gene KLF9): 28.881
- ΔCT (B2M), KLF9 (gene KLF9): 9.196
- ΔΔCT, KLF9 (gene KLF9, compared to DMSO): −2.195
- Ct Values, KLF13 (gene KLF13): 23.800
- ΔCT (B2M), KLF13 (gene KLF13): 4.115
- ΔΔCT, KLF13 (gene KLF13, compared to DMSO): −0.974
- Ct Values, LOX (gene LOX): 34.399
- ΔCT (B2M), LOX (gene LOX): 14.714
- ΔΔCT, LOX (gene LOX, compared to DMSO): −0.102
